This note sets out measurements from ChEMBL document CHEMBL1150322, “Aminopyrazine CB1 receptor inverse agonists” (Bioorg Med Chem Lett, 2008).

Series [1] has as its target T1, Cannabinoid receptor 1 (Homo sapiens, UniProt P21554). Type of series: functional, cell-based, Sf9.
Description: Antagonist activity at human CB1 receptor expressed in SF9 cells assessed as inhibition of CP-55940-stimulated GTPgammaS binding
The next series addresses CYP3A4 (Homo sapiens, UniProt P08684). The series is described as follows: in vitro. As to conditions: human liver microsomes, probe midazolam. In general terms: Liver microsomes are vesicles of endoplasmic reticulum, rich in cytochrome P450 enzymes.
The next series is described as follows: physchem. The following applies: aqueous, pH 7.4.
In series [2] the target is T1, Cannabinoid receptor 1. The series is classed as functional, cell-based, Sf9. This is another data set of the same source.
Description: Inverse agonist at human CB1 receptor expressed in SF9 cells assessed as decrease in GTPgammaS level
The subject of series [3] is Rattus norvegicus. As to the kind of experiment: Inhibition of food intake in overnight fed diet-induced obesity rat model at 10 mg/kg, po after 24 hrs relative to control. Type of series: functional.
The species entered for series [4] is Homo sapiens. As to the kind of experiment: Selectivity for human CB1 receptor over human CB2 receptor.
Series [5] addresses Cannabinoid receptor 1 (Rattus norvegicus, UniProt P20272).
Description: Antagonist activity at rat CB1 receptor in SF9 cells assessed as inhibition of CP-55940-stimulated GTPgammaS binding
The target of the next series is Cannabinoid receptor 2 (Homo sapiens, UniProt P34972).
Sequence of Cannabinoid receptor 2 (P34972 whole entry): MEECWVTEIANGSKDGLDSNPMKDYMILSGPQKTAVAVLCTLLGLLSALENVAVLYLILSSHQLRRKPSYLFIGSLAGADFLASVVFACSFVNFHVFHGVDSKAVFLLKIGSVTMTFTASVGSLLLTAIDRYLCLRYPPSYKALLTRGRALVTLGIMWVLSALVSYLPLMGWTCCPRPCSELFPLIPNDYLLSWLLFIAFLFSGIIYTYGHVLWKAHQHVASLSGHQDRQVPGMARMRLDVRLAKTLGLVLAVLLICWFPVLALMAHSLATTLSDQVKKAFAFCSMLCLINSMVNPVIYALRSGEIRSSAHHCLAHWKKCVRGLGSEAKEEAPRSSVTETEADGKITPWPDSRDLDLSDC
The species named for series [6] is Rattus norvegicus. As to the kind of experiment: Decrease in blood leptin level in rat after 18 days. The series is classed as functional, organism-based.
For series [7], the species on record is Rattus norvegicus. As to the kind of experiment: Decrease in blood insulin level in rat after 18 days. The series is classed as functional, organism-based.
Series [8] deals with Rattus norvegicus. The series is described as follows: Ex vivo receptor occupancy by displacement of [3H]CP-55940 from rat CB1 receptor in po dosed rat cerebellum membrane after 3 hrs. Type of series: functional, organism-based. A general note: Loss of bound radioactivity is the signal in a displacement assay; it reports binding, not function.
Series [9] relates to Homo sapiens. The series is described as follows: Ex vivo receptor occupancy by displacement of [3H]CP-55940 from human CB1 receptor in […] after 3 hrs. Type of series: functional. As to conditions: read-out: ID50 (the source's name).
Series [10] has as its system Rattus norvegicus. The series is described as follows: Reduction in cumulative food intake in subchronic diet-induced rat at 1 mg/kg, po qd after 18 days relative to control. The series is classed as functional. The arrangement: scale not given: the % may be the effect or the level left.
The subject of series [11] is Rattus norvegicus. As to the kind of experiment: Reduction in body weight in subchronic diet-induced rat at 1 mg/kg, po qd after 18 days relative to control. Type of series: functional. The arrangement: scale not given: the % may be the effect or the level left.
In series [12] the test system is Rattus norvegicus. The series is described as follows: Reduction in cumulative food intake in subchronic diet-induced rat at 5 mg/kg, po qd after 18 days relative to control. The series is classed as functional. Details: scale not given: the % may be the effect or the level left.
For series [13], the system named is Rattus norvegicus. As to the kind of experiment: Reduction in body weight in subchronic diet-induced rat at 5 mg/kg, po qd after 18 days relative to control. The series is classed as functional. Details: scale not given: the % may be the effect or the level left.
Series [14] is described as follows: Drug level at Tmax in rat plasma at 1 mg/kg, po qd after 19 days. Type of series: ADME, organism-based. The arrangement: dose 1 mg/kg, route oral. The following applies: read-out: Drug uptake.
Series [15] is described as follows: Drug level at Tmax in rat brain at 1 mg/kg, po qd after 19 days. Type of series: ADME, organism-based. Details: dose 1 mg/kg, route oral. As to conditions: read-out: Drug uptake.
A short description of series [16]: Drug level at Tmax in rat plasma at 5 mg/kg, po qd after 19 days. Type of series: ADME, organism-based. The arrangement: dose 5 mg/kg, route oral. The following applies: read-out: Drug uptake.
A short description of series [17]: Drug level at Tmax in rat brain at 5 mg/kg, po qd after 19 days. Details: dose 5 mg/kg, route oral. The following applies: read-out: Drug uptake. The series is classed as ADME, organism-based.
A short description of series [18]: Drug level in rat plasma 1 mg/kg, po qd after 19 days measured 17 hrs after last dose. The series is classed as ADME, organism-based. The arrangement: dose 1 mg/kg, route oral. As to conditions: read-out: Drug uptake.
The nature of series [19]: Drug level in rat brain at 1 mg/kg, po qd after 19 days measured 17 hrs after last dose. Type of series: ADME, organism-based. The arrangement: dose 1 mg/kg, route oral. The following applies: read-out: Drug uptake.
The nature of series [20]: Drug level in rat plasma 5 mg/kg, po qd after 19 days measured 17 hrs after last dose. Type of series: ADME, organism-based. The arrangement: dose 5 mg/kg, route oral. As to conditions: read-out: Drug uptake.
Series [21] is described as follows: Drug level in rat brain at 5 mg/kg, po qd after 19 days measured 17 hrs after last dose. Type of series: ADME, organism-based. Details: dose 5 mg/kg, route oral. The following applies: read-out: Drug uptake.
Series [22] is filed under the species Rattus norvegicus. The series is described as follows: Decrease in blood glucose level in rat after 18 days. Type of series: functional, organism-based.
The species entered for series [23] is Rattus norvegicus. As to the kind of experiment: animal or person. The following applies: po, 24 h, read-out: INH.
Description: Inhibition of food intake in overnight fed diet-induced obesity rat model at 5 mg/kg, po after 24 hrs relative to control

For orientation: pKi means the negative decadic logarithm of the Ki, by convention in mol/L. By inhibition is commonly meant the share of the control response that was lost under treatment. One may read the solubility as the dissolved amount per volume that the medium holds. As a reminder, the pIC50 is −log10 of the IC50, conventionally taken in molar units.

pIC50, pKi: −log10 of the molar value. In brackets after ≈: the same amount, converted by molar mass. Activity calls are given as the source filed them. No cut-off for these calls is given here.

T1 sequence (P21554 whole entry): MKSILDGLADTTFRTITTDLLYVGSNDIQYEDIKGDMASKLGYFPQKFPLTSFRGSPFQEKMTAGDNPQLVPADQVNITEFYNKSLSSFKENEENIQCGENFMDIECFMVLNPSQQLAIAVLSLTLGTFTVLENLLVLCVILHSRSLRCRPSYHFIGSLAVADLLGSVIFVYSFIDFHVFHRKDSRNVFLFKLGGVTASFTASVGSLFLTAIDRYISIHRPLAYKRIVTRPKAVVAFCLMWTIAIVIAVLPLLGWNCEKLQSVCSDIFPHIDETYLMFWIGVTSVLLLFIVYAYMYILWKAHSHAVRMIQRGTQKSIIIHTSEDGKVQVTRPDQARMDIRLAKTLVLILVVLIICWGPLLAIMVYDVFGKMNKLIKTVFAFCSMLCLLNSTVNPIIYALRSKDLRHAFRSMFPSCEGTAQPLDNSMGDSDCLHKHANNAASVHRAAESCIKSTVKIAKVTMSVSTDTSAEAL
Sequence of CYP3A4 (P08684 whole entry): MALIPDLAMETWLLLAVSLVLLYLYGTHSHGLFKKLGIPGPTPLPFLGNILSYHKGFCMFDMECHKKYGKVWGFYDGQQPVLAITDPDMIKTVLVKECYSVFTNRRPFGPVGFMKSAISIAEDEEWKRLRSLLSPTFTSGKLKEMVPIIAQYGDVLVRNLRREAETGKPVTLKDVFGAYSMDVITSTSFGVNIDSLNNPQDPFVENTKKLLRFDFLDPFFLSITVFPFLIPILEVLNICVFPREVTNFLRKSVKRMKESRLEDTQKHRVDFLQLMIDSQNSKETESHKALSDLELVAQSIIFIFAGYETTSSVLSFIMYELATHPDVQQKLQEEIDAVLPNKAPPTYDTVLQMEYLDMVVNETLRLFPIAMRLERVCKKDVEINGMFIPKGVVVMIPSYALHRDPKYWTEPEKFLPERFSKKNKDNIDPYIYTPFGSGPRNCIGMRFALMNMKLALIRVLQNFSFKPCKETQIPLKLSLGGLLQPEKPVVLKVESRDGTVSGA
Sequence of Cannabinoid receptor 1 (Rattus norvegicus, UniProt P20272) (P20272 whole entry): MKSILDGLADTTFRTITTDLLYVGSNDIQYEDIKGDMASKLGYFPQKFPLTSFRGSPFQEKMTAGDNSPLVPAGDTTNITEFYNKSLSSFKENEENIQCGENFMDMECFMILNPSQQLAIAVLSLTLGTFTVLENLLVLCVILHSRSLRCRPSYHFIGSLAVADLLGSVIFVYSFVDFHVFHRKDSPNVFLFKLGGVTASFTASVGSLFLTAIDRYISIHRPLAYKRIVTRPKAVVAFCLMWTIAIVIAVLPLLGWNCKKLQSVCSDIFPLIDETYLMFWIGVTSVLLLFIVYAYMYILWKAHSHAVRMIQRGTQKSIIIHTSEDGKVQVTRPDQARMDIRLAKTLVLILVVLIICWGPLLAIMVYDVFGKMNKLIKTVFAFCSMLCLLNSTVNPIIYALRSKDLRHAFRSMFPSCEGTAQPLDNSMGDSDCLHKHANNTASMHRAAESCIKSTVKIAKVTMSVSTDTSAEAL
Description for Cannabinoid receptor 2: Antagonist activity at human CB2 receptor in SF9 cells assessed as inhibition of CP-55940-stimulated GTPgammaS binding
Description for physchem: Aqueous solubility at pH 7.4

`CCNC1(C(N)=O)CCN(c2cnc(-c3ccc(F)cc3)c(-c3ccc(Cl)cc3Cl)n2)CC1` had a pKi on Cannabinoid receptor 1 [1] of 8.76. Moreover, the inhibition at 5 µM against CYP3A4 was 20.5%.
Turning to `CCNC1(C(N)=O)CCN(c2cnc(-c3ccc(Cl)cc3)c(-c3ccnc(Cl)c3)n2)CC1`, on Cannabinoid receptor 1 [1], the pKi is 9.17. In addition, the solubility in “physchem” is 21.8 µg/mL (≈ 46.3 µM). At CYP3A4, this molecule showed an inhibition at 5 µM of 54%.
Regarding `CCNC1(C(N)=O)CCN(c2cnc(-c3ccc(OCC)cc3)c(-c3ccc(OCC)cc3)n2)CC1`, the pKi at Cannabinoid receptor 1 [1] is 8.55. Also, on CYP3A4, the inhibition at 5 µM was less than 5%.
At Cannabinoid receptor 1 [1], `CCNC1(C(N)=O)CCN(c2cnc(-c3ccc(C(F)(F)F)cc3)c(-c3ccnc(Cl)c3)n2)CC1` showed a pKi of 9.06. In “physchem”, this molecule had a solubility of 25.5 µg/mL (≈ 50.5 µM). On CYP3A4, this molecule gave an inhibition at 5 µM of less than 5%.
For `CCNC1(C(N)=O)CCN(c2cnc(-c3ccc(Cl)cc3)c(-c3ccc(Cl)cc3Cl)n2)CC1`, the pKi on Cannabinoid receptor 1 [1] is 9.04. Moreover, the inhibition at 5 µM on CYP3A4 was less than 5%.
`CCNC1(C(N)=O)CCN(c2cnc(-c3ccc(Cl)cc3)c(-c3ccccc3Cl)n2)CC1` had a pKi on Cannabinoid receptor 1 [1] of 8.78. In addition, the solubility in the series “physchem” worked out at 1.25 µg/mL (≈ 2.66 µM). Also, on CYP3A4, the inhibition at 5 µM was found to be 9.7%.
The corresponding values for `CCNC1(C(N)=O)CCN(c2cnc(-c3ccc(OCC)cc3)c(-c3ccccc3Cl)n2)CC1` are 7.83, 1.2 µg/mL (≈ 2.5 µM) and 10%.
`O=S1(=O)CCN(c2cnc(-c3ccc(C(F)(F)F)cc3)c(-c3ccncc3Cl)n2)CC1`: the pKi at Cannabinoid receptor 1 [1] is 9.08; at Cannabinoid receptor 1 [5] it was 9.08; on Cannabinoid receptor 2, 5.72. Moreover, the pIC50 on Cannabinoid receptor 1 [2] is 8.38. In the series with Rattus norvegicus [3], this molecule returned an inhibition in vivo at 10 mg/kg of 71%. Also, the Ratio Ki in the series listed under Homo sapiens [4] was more than 2000. In “physchem”, the concentration in solution (solubility) was 23 µg/mL (≈ 49.1 µM). Moreover, the inhibition at 5 µM against CYP3A4 was less than 5%.
The molecule `CCC(=O)NC1CCN(c2cnc(-c3ccc(C(F)(F)F)cc3)c(-c3ccncc3Cl)n2)CC1` had a pKi at Cannabinoid receptor 1 [1] of 9.10. Further, the solubility in the series “physchem” is 24 µg/mL (≈ 49 µM). Moreover, testing at 5 µM on CYP3A4 gave an inhibition of 11%.
Consider `CC(C)C(=O)NC1CCN(c2cnc(-c3ccc(C(F)(F)F)cc3)c(-c3ccncc3Cl)n2)CC1`, for which the Activity result in the series filed under Rattus norvegicus [6] was “Dose-dependent effect”; in the series on Rattus norvegicus [10] it was 18.8%; in the series on Rattus norvegicus [11], 4.8%; with Rattus norvegicus [12] it was 27.6%; in the series on Rattus norvegicus [13], 8.5%. Moreover, the outcome in the series listed under Rattus norvegicus [7] and in the series listed under Rattus norvegicus [22] was Active. Further, the pKi at Cannabinoid receptor 1 [1] is 9.62; at Rattus norvegicus [8] it was 8.36; on Cannabinoid receptor 1 [5], 9.39; at Cannabinoid receptor 2, 5.31. On Cannabinoid receptor 1 [2], the pIC50 is 9.27. For the same molecule, in the series with Homo sapiens [9], the ED50 was 0.3 mg/kg. In addition, the Cmax in [14] is 121 ng/mL; in [16], 346 ng/mL. Moreover, the results for the concentration at 456 h in series [15] and in series [17] were 235 ng/mL and 630 ng/mL, respectively. The concentration at 17 h in series [18] is 44.2 ng/mL; in [19] it was 110 ng/mL; in series [20] it was 142 ng/mL; in series [21], 253 ng/mL. In the series listed under Homo sapiens [4], the Ratio Ki is more than 2000. The solubility in “physchem” stood at 4.5 µg/mL (≈ 8.93 µM). The same molecule showed an inhibition at 5 µM at CYP3A4 of less than 5%. Moreover, in the series filed under Rattus norvegicus [23], the inhibition in vivo at 5 mg/kg came to 80%.
In the case of `CCNC1(C(N)=O)CN(c2cnc(-c3ccc(C(F)(F)F)cc3)c(-c3ccnc(Cl)c3)n2)C1`, the pKi was 8.92 on Cannabinoid receptor 1 [1], 8.69 on Cannabinoid receptor 1 [5] and less than 4.30 at Cannabinoid receptor 2. Further, the pIC50 on Cannabinoid receptor 1 [2] is 8.51. The molecule further showed an inhibition in vivo at 10 mg/kg in the series on Rattus norvegicus [3] of 58%. Besides, the Ratio Ki in the series filed under Homo sapiens [4] is more than 2000. In “physchem”, the concentration in solution (solubility) was 38 µg/mL (≈ 79.7 µM). The same molecule returned an inhibition at 5 µM against CYP3A4 of less than 5%.
With `Cc1c(C(=O)NN2CCCCC2)nn(-c2ccc(Cl)cc2Cl)c1-c1ccc(Cl)cc1` [RIMONABANT], the result in the series filed under Rattus norvegicus [7] and in the series listed under Rattus norvegicus [22] was Active. The molecule also showed a negative logarithm of the Ki (pKi) at Rattus norvegicus [8] of 8.96. For the same molecule, the ED50 in the series with Homo sapiens [9] was 0.5 mg/kg. Further, the figures for the Activity in the series on Rattus norvegicus [12] and with Rattus norvegicus [13] were 13.8% and 4.1%, respectively. Also, the Cmax in series [16] came to 346 ng/mL. In [17], the concentration at 456 h was determined as 318 ng/mL. Also, the concentration at 17 h in series [20] is 3 ng/mL; in [21], 65 ng/mL. In addition, the solubility in the series “physchem” is 0.3 µg/mL (≈ 0.647 µM). Further, on CYP3A4, the inhibition at 5 µM is less than 5%. For the same molecule, in the series filed under Rattus norvegicus [23], the inhibition in vivo at 5 mg/kg was determined as 73%.
As for `CCNC1(C(N)=O)CCN(c2cnc(-c3ccc(Cl)cc3)c(-c3ccc(C#N)cc3)n2)CC1`, the pKi at Cannabinoid receptor 1 [1] was 7.49. Further, in the series “physchem”, the concentration in solution (solubility) came to 36 µg/mL (≈ 78.1 µM).
For `CCNC1(C(N)=O)CCN(c2cnc(-c3ccc(Cl)cc3)c(-c3ccncc3)n2)CC1`, the pKi at Cannabinoid receptor 1 [1] was 8.01. In the series “physchem”, the concentration in solution (solubility) came to 74.9 µg/mL (≈ 171 µM). The same molecule showed an inhibition at 5 µM at CYP3A4 of 71%.
